From patent publication US20240425483A1, “INDOLINES AS PROTAC COMPOUNDS” (NeoPhore Limited, priority 2021, published 2024) come the findings set out here.

The target in the assay is T1, PMS2 protein (Homo sapiens, UniProt P54278).
T1 construct: host or cells: SW620 human colorectal carcinoma cells
T1 sequence (P54278 1-862): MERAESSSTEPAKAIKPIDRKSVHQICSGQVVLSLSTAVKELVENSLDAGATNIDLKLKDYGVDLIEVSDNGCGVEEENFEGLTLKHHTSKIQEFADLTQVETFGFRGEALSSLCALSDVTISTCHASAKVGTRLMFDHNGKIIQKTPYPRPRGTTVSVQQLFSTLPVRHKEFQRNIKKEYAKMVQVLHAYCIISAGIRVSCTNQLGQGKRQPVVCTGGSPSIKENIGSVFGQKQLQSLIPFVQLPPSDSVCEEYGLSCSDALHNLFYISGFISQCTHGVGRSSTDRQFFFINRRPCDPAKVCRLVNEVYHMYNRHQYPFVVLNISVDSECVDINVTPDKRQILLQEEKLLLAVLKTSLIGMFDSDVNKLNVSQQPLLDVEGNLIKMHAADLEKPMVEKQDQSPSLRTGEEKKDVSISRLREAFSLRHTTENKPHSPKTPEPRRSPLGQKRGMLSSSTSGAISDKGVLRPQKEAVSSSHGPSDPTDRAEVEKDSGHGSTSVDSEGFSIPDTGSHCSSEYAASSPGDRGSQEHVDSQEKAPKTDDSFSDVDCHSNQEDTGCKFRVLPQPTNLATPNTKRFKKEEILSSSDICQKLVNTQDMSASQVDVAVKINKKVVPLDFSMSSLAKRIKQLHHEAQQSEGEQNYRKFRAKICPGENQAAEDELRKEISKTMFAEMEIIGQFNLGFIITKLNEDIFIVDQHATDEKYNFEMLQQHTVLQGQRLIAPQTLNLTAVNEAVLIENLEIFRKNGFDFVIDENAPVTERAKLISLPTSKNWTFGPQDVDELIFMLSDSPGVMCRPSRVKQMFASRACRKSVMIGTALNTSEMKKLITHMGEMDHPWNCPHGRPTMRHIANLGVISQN
Briefly: PROTAC screening in SW620 human colorectal carcinoma cells, PMS2 protein level by JESS Western blot. It is filed as cell-based. As to conditions: SW-620, 24 h, 1 uM compound. The protocol: PROTAC Screening Protocol Using SW620 Human Colorectal Carcinoma Cells
SVW620 cells (ATCC/[…]) were cultured in T75 Falcon flasks in culture media (F12/DMEM 1:1 media, 10% FCS, +L-G supplement). Cells were split twice a week, for a maximum of 6 weeks. Media was aspirated, and cells washed with 10 mL of sterile PBS. PBS was aspirated, and cells incubated with 1.5 mL TrypLE for up to 5 minutes at 37° C., 5% CO2. Once cells had detached, TrypLE was neutralised with 10 mL culture media and cells mixed 1:1 with Trypan blue and quantified using a Luna cell counter. Cells were then seeded into fresh T75 flasks with 1×10^6 cells and 10 mL culture media.
SW620 cells, cultured and counted as above, were used to seed 12 well plates at a density of 1.5×10^5 cells/well and incubated overnight at 37° C., 5% CO2. Test compounds were solubilized in DMSO to a stock concentration of 10 mM and serially diluted in DMSO and media to their test concentration; the final concentration of DMSO was 0.1% (v/v). Each concentration was tested in triplicate. SW620 cells were incubated with test compound for 24 hours at 37° C., 5% CO2. Media was aspirated from each well, and each well washed with 1 mL ice cold PBS. PBS was then aspirated, and 50 μL of cold lysis buffer (RIPA buffer supplemented with 1× protease inhibitors, Benzonase, MgCl) was added to each well; plates were then incubated on ice for 5 minutes. Cells were scraped using a pipette tip before being transferred to a fresh Eppendorf. Samples were spun at maximum speed in a benchtop centrifuge for 5 minutes at 4° C. and supernatant was then transferred to fresh tubes. Samples were stored at −80° C. until analysis.
Bicinchonininic acid (BCA) protein assay standards (2-0.125 mg/mL BSA) were prepared in advance. 6 μL of each standard was pipetted in duplicate into rows A and B of a 384-well assay plate. Test samples were diluted in lysis buffer (1:3-1:10) in a 384-well plate in duplicate. BCA Reagents were combined 50:1, Part A:Part B and 50 μL added to each well. Plates were incubated for 30 min at 37° C. in a plate incubator and read using a BCA protein 384 protocol on an EnSpire plate reader. Protein concentrations were calculated from a standard curve.
JESS Western Blot Protocol
Protein lysates were prepared using Protein Simple EZ standard pack reagents: 40 μL distilled H2O was added to a DTT tube (clear) and treated with 20 μL 10× sample buffer and 20 μL DTT to 5×MM tube (pink). 20 μL dH2O was added to biotinylated ladder tube (green).
Test samples were prepared by dilution to the required concentration (0.1 mg/mL) in 0.1× sample buffer. 1.25 μL 5× fluorescent master mix from the EZ standard pack was added to 5 μL sample for each lane to be loaded (e.g. 2.5 μL+10 μL if loading same sample into 2 wells). Samples were vortexed, briefly spun down and heated at 95° C. for 5 min in a PCR machine then vortexed again and briefly spun down before loading onto JESS cassettes (catalogue No: SM-W004) according to manufacturer's instructions (https://www.proteinsimple.com/technical_library.html?product=simplewestern&def_list=list). Protein expression was determined by the peak area of the target protein signal. Peak area of the target protein was normalised to peak area of the loading control (actin) and to DMSO control.

The mark [1] stands for this setting: normalised to actin and DMSO control, Table A1.

Bounds are passed on as bounds.

In the case of `Cc1c(O)cc(O)c(C(=O)N2Cc3ccc(CN4CCN(CCOCCOCCOCCNc5cccc6c5CN(C5CCC(=O)NC5=O)C6=O)CC4)cc3C2)c1OCC1CCCCC1` (centres unmarked) [Example 17, 3-(4-((2-(2-(2-(2-(4-((2-(2-(Cyclohexylmethoxy)-4,6-dihydroxy-3-methylbenzoyl)isoindolin-5-yl)methyl)piperazin-1-yl)ethoxy)ethoxy)ethoxy)ethyl)amino)-1-oxoisoindolin-2-yl)piperidine-2,6-dione], the remaining activity (usually the signal under treatment as a percentage of the control signal) at 1 µM under setting [1] was in the range of 10 to 25%.

Take `Cc1c(O)cc(O)c(C(=O)N2Cc3ccc(C(=O)N4CCC(OCCOCCOCCN5CCN(c6cc7c(cc6F)C(=O)N(C6CCC(=O)NC6=O)C7=O)CC5)CC4)cc3C2)c1OCc1ccccc1` (centres unmarked) [Example 18, 5-(4-(2-(2-(2-((1-(2-(2-(Benzyloxy)-4,6-dihydroxy-3-methylbenzoyl)isoindoline-5-carbonyl)piperidin-4-yl)oxy)ethoxy)ethoxy)ethyl)piperazin-1-yl)-2-(2,6-dioxopiperidin-3-yl)-6-fluoroisoindoline-1,3-dione]: the remaining activity at 1 µM under setting [1] was 25 to 50%.

Regarding `Cc1c(O)cc(O)c(C(=O)N2Cc3ccc(CN4CCN(CCOCCOCCOCCOCCNc5cccc6c5C(=O)N(C5CCC(=O)NC5=O)C6=O)CC4)cc3C2)c1OCC1CCCCC1` (centres unmarked) [Example 6, 4-[2-[2-[2-[2-[2-[4-[[2-[2-(Cyclohexylmethoxy)-4,6-dihydroxy-3-methyl-benzoyl]isoindolin-5-yl]methyl]piperazin-1-yl]ethoxy]ethoxy]ethoxy]ethoxy]ethylamino]-2-(2,6-dioxo-3-piperidyl)isoindoline-1,3-dione], the remaining activity at 1 µM under setting [1] was less than 10%.

For the molecule `Cc1c(O)cc(O)c(C(=O)N2Cc3ccc(CN4CCN(CCOCCOCCOc5cccc6c5C(=O)N(C5CCC(=O)NC5=O)C6=O)CC4)cc3C2)c1OCc1ccccc1` (centres unmarked) [Example 10, 4-(2-(2-(2-(4-((2-(2-(Benzyloxy)-4,6-dihydroxy-3-methylbenzoyl)isoindolin-5-yl)methyl)piperazin-1-yl)ethoxy)ethoxy)ethoxy)-2-(2,6-dioxopiperidin-3-yl)isoindoline-1,3-dione], the remaining activity at 1 µM under setting [1] lay in the range of 25 to 50%.

Take `Cc1c(O)cc(O)c(C(=O)N2Cc3ccc(CN4CCN(CCOCCOCCOCCOCCOCCOCCNc5cccc6c5C(=O)N(C5CCC(=O)NC5=O)C6=O)CC4)cc3C2)c1OCC1CCCCC1` (centres unmarked) [Example 8, 4-[2-[2-[2-[2-[2-[2-[2-[4-[[2-[2-(Cyclohexylmethoxy)-4,6-dihydroxy-3-methyl-benzoyl]isoindolin-5-yl]methyl]piperazin-1-yl]ethoxy]ethoxy]ethoxy]ethoxy]ethoxy]ethoxy]ethylamino]-2-(2,6-dioxo-3-piperidyl)isoindoline-1,3-dione]: the remaining activity at 1 µM under setting [1] lay within 10 to 25%.

`Cc1c(O)cc(O)c(C(=O)N2Cc3ccc(CN4CCN(CCOCCOCCOCCNc5ccc6c(c5)C(=O)N(C5CCC(=O)NC5=O)C6=O)CC4)cc3C2)c1OCc1ccccc1` (centres unmarked) [Example 13, 5-((2-(2-(2-(2-(4-((2-(2-(Benzyloxy)-4,6-dihydroxy-3-methylbenzoyl)isoindolin-5-yl)methyl)piperazin-1-yl)ethoxy)ethoxy)ethoxy)ethyl)amino)-2-(2,6-dioxopiperidin-3-yl)isoindoline-1,3-dione] showed a remaining activity at 1 µM under setting [1] of 10 to 25%.

Turning to `Cc1c(O)cc(O)c(C(=O)N2Cc3ccc(CN4CCN(CCOCCOCCOCCOCCOCCOc5cccc6c5C(=O)N(C5CCC(=O)NC5=O)C6=O)CC4)cc3C2)c1OCc1ccccc1` (centres unmarked) [Example 12, 4-((17-(4-((2-(2-(Benzyloxy)-4,6-dihydroxy-3-methylbenzoyl)isoindolin-5-yl)methyl)piperazin-1-yl)-3,6,9,12,15-pentaoxaheptadecyl)oxy)-2-(2,6-dioxopiperidin-3-yl)isoindoline-1,3-dione], the remaining activity at 1 µM is 10 to 25% under setting [1] and less than 10% (upon further testing, Table A2).
